Measured values published in patent US11744804B2, “Microcapsule powder stable in gastric acid, method for preparing same, and use thereof” (HOBOOMLIFE BIO-TECHNOLOGY (SHENZHEN) CO., LTD., priority 2021, dated 2023).

Experiment: Release test in artificial intestinal juice
Format: physicochemical
Conditions: for Dissolution rate of core material after 1 h / Dissolution rate of core material after 2 h / Dissolution rate of core material after 3 h / Dissolution rate of core material after 4 h: artificial intestinal juice, 37° C., 100 r/min; for Retention rate of NADH before test: before artificial intestinal juice test
Description: A Tablet Four-Usage Tester was used for testing. The tester was started for preheating. The temperature was set at 37° C. A basket shaft and a basket were installed. A positioning ball used for positioning (marked) was put into a dissolution cup (900 mL of prepared artificial intestinal juice was added into each dissolution cup) and fixed. 200 mg of sample 2 and 200 mg of sample 5 in the examples as well as 200 mg of corresponding core materials were taken respectively, wrapped with gauze and put into corresponding baskets. After being rotated at 100 r/min for 1, 2, 3 and 4 h, 1 mL of liquid was taken from each of the dissolution cups. The contents of the core materials in the samples were detected by the same detection method as in Example 1.
Retention rate of core material=(Theoretical embedding amount of core material in sample-Content of core material in artificial intestinal juice detected)/Theoretical embedding amount of core material in sample. The theoretical embedding amount of the core material in the sample is the added amount of the core material in the sample.

Dissolution rate of core material after 1 h | Dissolution rate of core material after 2 h | Dissolution rate of core material after 3 h | Dissolution rate of core material after 4 h | Retention rate of NADH before test | Compound
99.6% | 99.5% | 99.4% | 99.5% | 100% | NC(=O)C1=CN([C@@H]2O[C@H](COP(=O)(O)OP(=O)(O)OC[C@H]3O[C@@H](n4cnc5c(N)ncnc54)[C@H](O)[C@@H]3O)[C@@H](O)[C@H]2O)C=CC1 [NADH, reduced nicotinamide adenine dinucleotide]
98.4% | 99.7% | 99.3% | 99.1% | 100% | NC(=O)C1=CN([C@@H]2O[C@H](COP(=O)(O)OP(=O)(O)OC[C@H]3O[C@@H](n4cnc5c(N)ncnc54)[C@H](OP(=O)(O)O)[C@@H]3O)[C@@H](O)[C@H]2O)C=CC1 [NADPH, reduced nicotinamide adenine dinucleotide phosphate]
